Assay results reported in PMC6268315, “Investigating the Spectrum of Biological Activity of Substituted Quinoline-2-Carboxamides and Their Isosteres ^†” (Molecules, 2012).
In brackets after ≈: the same amount, converted by molar mass. Like-named read-outs stand apart in the source and are kept apart here.

Legend:
[1] = test system: human monocytic leukemia THP-1 cells; details: assessed in this line formerly; cited from earlier work
[2] = test system: M. avium paratuberculosis ATCC19698; assay: In vitro antimycobacterial evaluation (alamarBlue); type: cell-based; details: Mycobacterium avium, 264 h, read-out: MIC/IC90 M.avium paratuberculosis
[3] = test system: M. avium complex CIT19/06; assay: In vitro antimycobacterial evaluation (alamarBlue); type: cell-based; details: Mycobacterium avium, 120 h, read-out: MIC/IC90 M. avium complex
[4] = test system: human monocytic leukemia THP-1 cells; details: for lethal effect on THP-1 cells at the highest dose achieved in the medium: 100 µmol/L; for LD50: human, 24 h
[5] = test system: photosynthetic electron transport (PET) in spinach chloroplasts; assay: Inhibition of photosynthetic electron transport (PET) in spinach chloroplasts; type: biochemical, Spinacia oleracea L.; details: photoreduction of DCPIP, pH 7.2
Method: Chloroplasts were prepared from spinach (Spinacia oleracea L.) according to Masarovicova and Kralova. The inhibition of photosynthetic electron transport (PET) in spinach chloroplasts was determined spectrophotometrically (Genesys 6, Thermo Scientific, USA), using an artificial electron acceptor 2,6-dichlorophenol-indophenol (DCIPP) according to Kralova et al., and the rate of photosynthetic electron transport was monitored as a photoreduction of DCPIP. The measurements were carried out in phosphate buffer (0.02 mol/L, pH 7.2) containing sucrose (0.4 mol/L), MgCl2 (0.005 mol/L) and NaCl (0.015 mol/L). The chlorophyll content was 30 mg/L in these experiments and the samples were irradiated (~100 W/m^2 with 10 cm distance) with a halogen lamp (250 W) using a 4 cm water filter to prevent warming of the samples (suspension temperature 22 °C). The studied compounds were dissolved in DMSO due to their limited water solubility. […] The inhibitory efficiency of the studied compounds was expressed by IC50 values, i.e., by molar concentration of the compounds causing 50% decrease in the oxygen evolution rate relative to the untreated control.

M. kansasii CIT11/06 = assay: In vitro antimycobacterial evaluation (alamarBlue); type: cell-based; details: Mycobacterium kansasii, read-out: MIC/IC90 M. kansasii
[6] = test system: M. tuberculosis and other atypical mycobacterial strains; assay: In vitro antimycobacterial screening, results in words; type: cell-based, Mycobacterium sp.; details: low solubility, precipitation in test media

In the case of CC[C@@]1(O)C(=O)OCc2c1cc1n(c2=O)Cc2cc3ccccc3nc2-1 [camptothecin], the LD50 [1] is given as 0.16 ± 0.07 µmol/L.
With O=C(c1ccc2ccccc2n1)N1CCCC1 [Compound 3, 2-(Pyrrolidin-1-ylcarbonyl)quinoline] the MIC ([2]; ATCC19698, 11 days) was 111 µM (≈ 25.1 µg/mL), the MIC [3] was 552 µM (≈ 125 µg/mL) and the “lethal effect on THP-1 cells at the highest dose achieved in the medium” value (shortened to “lethal effect on THP-1 cells”) [4] was “did not lead to the 100% lethal effect”. The LD50 [4] was >100 µmol/L, the IC50 [5] was 1600 µM and the MIC (M. kansasii CIT11/06; 120 h, CIT11/06, 5 days) was 111 µM (≈ 25.1 µg/mL).
With O=C(NCCc1ccccc1)c1ccc2ccccc2n1 [Compound 11, N-(2-Phenylethyl)quinoline-2-carboxamide] the MIC ([2]; ATCC19698, 11 days) was 905 µM (≈ 250 µg/mL), the MIC ([3]; CIT19/06, 5 days) was 452 µM (≈ 125 µg/mL) and the “lethal effect on THP-1 cells” value [4] was “did not lead to the 100% lethal effect”. For the same compound, the LD50 [4] was >100 µmol/L and the MIC (M. kansasii CIT11/06; 120 h, CIT11/06, 5 days) was 452 µM (≈ 125 µg/mL).
Compound CCCCCCCCCCCCNC(=O)c1ccc2ccccc2n1 [Compound 2, N-Dodecylquinoline-2-carboxamide] has an MIC ([2]; ATCC19698, 11 days) of 734 µM (≈ 250 µg/mL), an MIC [3] of 367 µM (≈ 125 µg/mL) and an IC50 [5] of 573 µM. For the same compound, the MIC (M. kansasii CIT11/06; 120 h, CIT11/06, 5 days) was 734 µM (≈ 250 µg/mL).
O=C(NC1CCCCC1)c1ccc2ccccc2n1 [Compound 6, N-Cyclohexylquinoline-2-carboxamide] gave an MIC ([2]; ATCC19698, 11 days) of 520 µM (≈ 132 µg/mL), an MIC ([3]; CIT19/06, 5 days) of 520 µM (≈ 132 µg/mL) and a melting point of 98 to 99 °C. The IC50 [5] was 1040 µM and the MIC (M. kansasii CIT11/06; 120 h, CIT11/06, 5 days) was 520 µM (≈ 132 µg/mL).
In the case of O=C(NC1CCCCCCC1)c1ccc2ccccc2n1 [Compound 8, N-Cyclooctylquinoline-2-carboxamide], the melting point is reported as 72 to 73 °C, the IC50 [5] is reported as 415 µM and the “antimycobacterial activity” value [6] is reported as “no activity”.
For COc1ccccc1NC(=O)c1ccc2ccccc2c1 [Compound 32a, N-(2-Methoxyphenyl)-2-naphthamide], the MIC ([2]; ATCC19698, 11 days) was 216 µM (≈ 59.9 µg/mL), the MIC ([3]; CIT19/06, 5 days) was 451 µM (≈ 125 µg/mL) and the melting point was 82 °C. It also gave an IC50 [5] of 763 µM and an MIC (M. kansasii CIT11/06; 120 h, CIT11/06, 5 days) of 451 µM (≈ 125 µg/mL).
With CC(C)NC(=O)c1ccc2ccccc2n1 [Compound 1, N-Isopropylquinoline-2-carboxamide] the MIC ([2]; ATCC19698, 11 days) was 1170 µM (≈ 250 µg/mL), the MIC ([3]; CIT19/06, 5 days) was 583 µM (≈ 125 µg/mL) and the melting point was 75 to 76 °C. The MIC (M. kansasii CIT11/06; 120 h, CIT11/06, 5 days) was 1170 µM (≈ 250 µg/mL).
With O=C(c1ccc2ccccc2c1)N1CCCC1 [Compound 22, 1-(2-Naphthoyl)pyrrolidine] the MIC ([2]; ATCC19698, 11 days) was 111 µM (≈ 25 µg/mL), the MIC [3] was 554 µM (≈ 125 µg/mL) and the “lethal effect on THP-1 cells” value [4] was “did not lead to the 100% lethal effect”. The LD50 [4] was >100 µmol/L and the MIC (M. kansasii CIT11/06; 120 h, CIT11/06, 5 days) was 111 µM (≈ 25 µg/mL).
With O=C(Nc1ccccc1)c1ccc2ccccc2n1 [Compound 9, N-Phenylquinoline-2-carboxamide] the IC50 [5] was 85.1 µM and the “antimycobacterial activity” value [6] was “non-active”.
Compound O=C(NC1CCCC1)c1ccc2ccccc2n1 [Compound 5, N-Cyclopentylquinoline-2-carboxamide] has an MIC [2] of 491 µM (≈ 118 µg/mL), an MIC [3] of 491 µM (≈ 118 µg/mL) and a melting point of 63 to 64 °C. The IC50 [5] was 762 µM and the MIC (M. kansasii CIT11/06; CIT11/06, 120 h) was 491 µM (≈ 118 µg/mL).
In the case of NC(=O)c1cnccn1 [PZA, pyrazinamide, reference compound], the MIC [2] is reported as > 812 µM, the MIC [3] is reported as > 812 µM and the MIC (M. kansasii CIT11/06; CIT11/06, 120 h) is reported as > 812 µM.
Compound Cc1cccc(NC(=O)c2ccc3ccccc3n2)c1 [Compound 14b, N-(3-Methylphenyl)quinoline-2-carboxamide] has an MIC ([2]; ATCC19698, 11 days) of 939 µM (≈ 246 µg/mL), an MIC [3] of 469 µM (≈ 123 µg/mL) and a melting point of 82 to 83 °C. For the same compound, the IC50 [5] was 101 µM and the MIC (M. kansasii CIT11/06; CIT11/06, 120 h) was 469 µM (≈ 123 µg/mL).
For NNC(=O)c1ccncc1 [INH, isoniazid, reference compound], the MIC [2] was > 729 µM, the MIC ([3]; CIT19/06, 5 days) was < 72.9 µM and the MIC (M. kansasii CIT11/06; 120 h, CIT11/06, 5 days) was < 72.9 µM.
O=C(NC1CCCCCC1)c1ccc2ccccc2n1 [Compound 7, N-Cycloheptylquinoline-2-carboxamide] gave an MIC ([2]; ATCC19698, 11 days) of 223 µM (≈ 59.8 µg/mL), an MIC ([3]; CIT19/06, 5 days) of 466 µM (≈ 125 µg/mL) and an LD50 [4] of 62 ± 4.5 µmol/L. The MIC (M. kansasii CIT11/06; 120 h, CIT11/06, 5 days) was 466 µM (≈ 125 µg/mL).
Work on O=C(Nc1cccc([N+](=O)[O-])c1)c1ccc2ccccc2c1 [Compound 38b, N-(3-Nitrophenyl)-2-naphthamide] yielded a melting point of 177 °C and an IC50 [5] of 633 µM.
